Measurements from ChEMBL document CHEMBL1201862, “PubChem BioAssay data set” (2004).
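Compound exposure: 48 hours, 5 concentrations, 96-well plates. Abbreviation: GI50, concentration required for 50% inhibition of growth.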 Calls of active or inactive are those of the source. Cut-off read from the data, not from the text of the source: active = GI50 up to about 1.1 µM and inactive = higher.

Assays:
Assay in all cases: inhibition of tumour cell growth, NCI panel, 48 h
SW-620 = tested on: SW-620
NCI/ADR-RES = tested on: NCI/ADR-RES
MCF7 = tested on: MCF7
NCI-H226 = tested on: NCI-H226
MDA-MB-435 = tested on: MDA-MB-435
ACHN = tested on: ACHN
M14 = tested on: M14
K562 = tested on: K562
MDA-N = tested on: MDA-N
SK-OV-3 = tested on: SK-OV-3
HT-29 = tested on: HT-29
NCI-H522 = tested on: NCI-H522
HOP-92 = tested on: HOP-92
RXF 393 = tested on: RXF 393
OVCAR-5 = tested on: OVCAR-5
SN12C = tested on: SN12C
A498 = tested on: A498
CAKI-1 = tested on: CAKI-1
UO-31 = tested on: UO-31
U-251 = tested on: U-251
SF-295 = tested on: SF-295
SF-539 = tested on: SF-539
SF-268 = tested on: SF-268
SNB-75 = tested on: SNB-75
CCRF-CEM = tested on: CCRF-CEM
HOP-62 = tested on: HOP-62
SK-MEL-28 = tested on: SK-MEL-28
KM12 = tested on: KM12
Hs-578T = tested on: Hs-578T
BT-549 = tested on: BT-549
A549 = tested on: A549
OVCAR-8 = tested on: OVCAR-8
EKVX = tested on: EKVX
HCC 2998 = tested on: HCC 2998
PC-3 = tested on: PC-3
MDA-MB-231 = tested on: MDA-MB-231
MOLT-4 = tested on: MOLT-4
UACC-62 = tested on: UACC-62
T47D = tested on: T47D
UACC-257 = tested on: UACC-257
SK-MEL-5 = tested on: SK-MEL-5
RPMI-8226 = tested on: RPMI-8226
LOX IMVI = tested on: LOX IMVI
HCT-15 = tested on: HCT-15
IGROV-1 = tested on: IGROV-1
TK-10 = tested on: TK-10
SNB-19 = tested on: SNB-19
OVCAR-4 = tested on: OVCAR-4
OVCAR-3 = tested on: OVCAR-3
786-0 = tested on: 786-0
SR = tested on: SR
NCI-H460 = tested on: NCI-H460
SK-MEL-2 = tested on: SK-MEL-2
DU-145 = tested on: DU-145
COLO 205 = tested on: COLO 205
HCT-116 = tested on: HCT-116
NCI-H23 = tested on: NCI-H23
HL-60 = tested on: HL-60
Malme-3M = tested on: Malme-3M

Measured: GI50

CC(=O)/C(=C/N1CCNC1=S)C(=O)Nc1ccccc1C
> 100 µM: HCT-15
inactive: SW-620 > 100 µM | NCI/ADR-RES > 100 µM | MCF7 > 100 µM | NCI-H226 > 100 µM | MDA-MB-435 > 100 µM | ACHN > 100 µM | M14 > 100 µM | K562 > 100 µM | MDA-N > 100 µM | SK-OV-3 > 100 µM | HT-29 > 100 µM | NCI-H522 > 100 µM | HOP-92 > 100 µM | RXF 393 > 100 µM | OVCAR-5 > 100 µM | SN12C > 100 µM | A498 > 100 µM | CAKI-1 > 100 µM | UO-31 > 100 µM | U-251 > 100 µM | SF-295 > 100 µM | SF-539 > 100 µM | SF-268 > 100 µM | SNB-75 > 100 µM | CCRF-CEM > 100 µM | HOP-62 > 100 µM | SK-MEL-28 > 100 µM | KM12 > 100 µM | Hs-578T > 100 µM | BT-549 > 100 µM | A549 > 100 µM | OVCAR-8 > 100 µM | EKVX > 100 µM | HCC 2998 > 100 µM | PC-3 > 100 µM | MDA-MB-231 > 100 µM | MOLT-4 > 100 µM | UACC-62 > 100 µM | T47D > 100 µM | UACC-257 > 100 µM | SK-MEL-5 > 100 µM | RPMI-8226 > 100 µM | LOX IMVI > 100 µM | IGROV-1 > 100 µM | TK-10 > 100 µM | SNB-19 > 100 µM | OVCAR-4 > 100 µM | OVCAR-3 > 100 µM | 786-0 > 100 µM | SR 83 µM | NCI-H460 > 100 µM | SK-MEL-2 > 100 µM | DU-145 > 100 µM | COLO 205 > 100 µM | HCT-116 > 100 µM | NCI-H23 > 100 µM

CC1CCCN1CCCOC(=O)c1ccc(OC2C=CCCC2)cc1 (centres undefined)
inactive: SW-620 20.7 µM | NCI/ADR-RES 48.3 µM | MCF7 25.1 µM | NCI-H226 29.4 µM | MDA-MB-435 > 100 µM | ACHN 33.5 µM | M14 16.2 µM | K562 18.9 µM | MDA-N 39.5 µM | SK-OV-3 56.1 µM | HT-29 17.7 µM | NCI-H522 20.9 µM | RXF 393 26.7 µM | OVCAR-5 71.9 µM | SN12C 39.4 µM | A498 67.1 µM | HL-60 17.4 µM | UO-31 34.2 µM | U-251 37.6 µM | SF-295 16.5 µM | SF-539 25.6 µM | SF-268 37.8 µM | SNB-75 7.74 µM | CCRF-CEM 30.3 µM | HOP-62 20.1 µM | SK-MEL-28 54.7 µM | KM12 38.2 µM | Malme-3M 18.9 µM | Hs-578T 32.4 µM | BT-549 40.6 µM | A549 42.1 µM | OVCAR-8 47.6 µM | EKVX 51.4 µM | HCC 2998 28.6 µM | PC-3 22.4 µM | MDA-MB-231 18.1 µM | MOLT-4 25.1 µM | UACC-62 > 100 µM | T47D 13.5 µM | UACC-257 60.8 µM | SK-MEL-5 19.2 µM | RPMI-8226 31.8 µM | LOX IMVI 19.7 µM | IGROV-1 21.4 µM | TK-10 36.9 µM | SNB-19 38.2 µM | OVCAR-4 50 µM | OVCAR-3 39.2 µM | 786-0 22.3 µM | SR 28.1 µM | NCI-H460 17.1 µM | SK-MEL-2 > 100 µM | DU-145 > 100 µM | COLO 205 16.6 µM | HCT-116 17.2 µM | NCI-H23 25.4 µM
23.3 µM: HCT-15
